Laboratory results from ChEMBL document CHEMBL1201862, “PubChem BioAssay data set” (2004).
Calls of active or inactive are those of the source.

What was measured:
[1] = target: FAD-linked sulfhydryl oxidase ALR (Homo sapiens, UniProt P55789); assay: ALR-catalysed DTT oxidation blockers – biochemical, H2O2 detection, luminescence, cherry-pick, dose response (AID 493248)
[2] = target: Large T antigen (Simian virus 40, UniProt P03070); type: functional, Betapolyomavirus macacae;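 further: Confirmatory-stage PubChem screen for compounds that inhibit SV40 T antigen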
Large T antigen, sequence (P03070 whole entry): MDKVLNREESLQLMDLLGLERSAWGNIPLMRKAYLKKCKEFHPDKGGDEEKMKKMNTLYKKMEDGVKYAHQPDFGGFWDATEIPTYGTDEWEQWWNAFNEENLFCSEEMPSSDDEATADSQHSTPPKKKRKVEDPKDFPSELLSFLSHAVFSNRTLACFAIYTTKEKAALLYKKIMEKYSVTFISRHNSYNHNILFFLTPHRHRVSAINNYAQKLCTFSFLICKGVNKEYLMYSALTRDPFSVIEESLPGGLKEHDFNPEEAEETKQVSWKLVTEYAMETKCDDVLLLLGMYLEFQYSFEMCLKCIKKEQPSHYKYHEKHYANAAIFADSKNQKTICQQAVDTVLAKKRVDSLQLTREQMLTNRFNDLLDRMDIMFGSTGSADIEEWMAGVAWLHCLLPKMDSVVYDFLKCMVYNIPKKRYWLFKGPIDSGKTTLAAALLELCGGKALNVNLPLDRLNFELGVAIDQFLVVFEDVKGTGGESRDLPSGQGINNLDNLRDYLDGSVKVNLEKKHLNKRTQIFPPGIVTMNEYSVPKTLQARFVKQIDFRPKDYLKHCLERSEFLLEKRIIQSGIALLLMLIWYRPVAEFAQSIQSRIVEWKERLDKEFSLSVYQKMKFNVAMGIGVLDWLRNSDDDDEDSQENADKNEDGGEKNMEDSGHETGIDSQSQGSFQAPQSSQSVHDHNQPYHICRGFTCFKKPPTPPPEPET

[3] = viability of uninfected HEp-2 cells – cell-based, HTS, cytotoxicity control for RSV inhibitor project, dose response (AID 2410); type: functional; details: human respiratory syncytial virus
[4] = target: T1, Protein skinhead-1 (Caenorhabditis elegans, UniProt P34707); type: functional
T1 sequence (P34707 whole entry): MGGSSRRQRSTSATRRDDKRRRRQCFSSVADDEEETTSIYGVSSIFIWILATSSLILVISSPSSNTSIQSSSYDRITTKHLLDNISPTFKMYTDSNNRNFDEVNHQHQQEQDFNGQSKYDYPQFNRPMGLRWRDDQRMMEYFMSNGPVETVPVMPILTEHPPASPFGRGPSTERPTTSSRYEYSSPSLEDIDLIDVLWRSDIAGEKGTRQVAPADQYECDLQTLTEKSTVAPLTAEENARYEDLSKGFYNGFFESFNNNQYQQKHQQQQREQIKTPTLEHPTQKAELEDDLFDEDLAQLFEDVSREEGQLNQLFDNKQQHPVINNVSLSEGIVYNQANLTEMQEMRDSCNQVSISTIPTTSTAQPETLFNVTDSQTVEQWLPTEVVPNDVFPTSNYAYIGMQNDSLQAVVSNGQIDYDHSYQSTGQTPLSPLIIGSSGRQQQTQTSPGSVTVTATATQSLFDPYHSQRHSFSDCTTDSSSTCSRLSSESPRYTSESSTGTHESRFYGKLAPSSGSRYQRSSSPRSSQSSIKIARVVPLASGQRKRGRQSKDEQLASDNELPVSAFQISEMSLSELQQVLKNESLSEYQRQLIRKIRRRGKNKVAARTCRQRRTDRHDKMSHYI

[5] = Luminescence Cell-Based Dose Confirmation HTS to Identify Activators of 5'UTR Stem-Loop Driven Alpha-Synuclein mRNA Translation in H4 Neuroglioblastoma Cells. [Related pubchem assays: 1829 (Project Summary), 1814 (Primary HTS)]; type: functional
[6] = Luminescence Cell-Based Dose Response HTS to Identify Activators of Luciferase Translation or Activity in H4 […] Cells. [Related pubchem assays: 1829 (Project Summary), 1814 (Primary HTS)]; type: functional
[7] = test system: H4; assay: Luminescence Cell-Based Dose Response HTS to Identify Activators of 5'UTR Stem-Loop Driven Prion Protein mRNA Translation in H4 Neuroglioblastoma Cells. [Related pubchem assays: 1829 (Project Summary), 1814 (Primary HTS)]; type: functional; details: Homo sapiens
[8] = target: T2, Calpain-2 catalytic subunit (Sus scrofa, UniProt P43367); assay: m-calpain protease blockers, concentration series – biochemical, fluorogenic peptide substrate, dose response (AID 1420); type: functional
T2 sequence (P43367 whole entry): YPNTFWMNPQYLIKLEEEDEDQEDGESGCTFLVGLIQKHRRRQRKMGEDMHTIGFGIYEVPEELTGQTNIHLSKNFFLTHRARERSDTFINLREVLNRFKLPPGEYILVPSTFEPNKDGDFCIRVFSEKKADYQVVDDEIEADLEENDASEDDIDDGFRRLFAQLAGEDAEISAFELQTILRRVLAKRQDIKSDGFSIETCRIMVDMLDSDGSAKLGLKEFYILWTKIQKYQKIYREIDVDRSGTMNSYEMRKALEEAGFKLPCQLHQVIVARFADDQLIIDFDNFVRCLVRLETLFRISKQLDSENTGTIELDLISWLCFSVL

[9] = viability of PTEN-deleted HCT116 cells – cell-based, HCT116 PTEN knockout, dose response (AID 1047); type: functional;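 further: HCT116 colon tumor cells with PTEN knocked out; cells exposed to compound for 60 hours before readout; potency for loss of cell viability measured by luminescence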
[10] = viability of HCT116 lacking mutant beta-catenin – cell-based, human colon tumor, dose response (AID 1045); type: functional;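 further: HCT116 colon tumor cells with beta catenin knocked out; cells exposed to compound for 60 hours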
[11] = test system: Streptococcus sp. 'group A'; assay: Streptococcus pyogenes SK(-)GAS viability under kanamycin – luminescence, BacTiterGlo, confirmation, counter-screen for streptokinase expression inhibitor project, dose response (AID 1900); type: functional, organism-based
[12] = target: T3, Streptokinase A (Streptococcus pyogenes serotype M1, UniProt P10520); assay: viability-normalized secreted streptokinase activity reduction – plasminogen activation absorbance, OD405, dose response (AID 1914); type: functional, Streptococcus pyogenes M1 GAS;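 further: secreted streptokinase activity via plasminogen activation per viability signal from cell pellet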
T3 sequence (P10520 whole entry): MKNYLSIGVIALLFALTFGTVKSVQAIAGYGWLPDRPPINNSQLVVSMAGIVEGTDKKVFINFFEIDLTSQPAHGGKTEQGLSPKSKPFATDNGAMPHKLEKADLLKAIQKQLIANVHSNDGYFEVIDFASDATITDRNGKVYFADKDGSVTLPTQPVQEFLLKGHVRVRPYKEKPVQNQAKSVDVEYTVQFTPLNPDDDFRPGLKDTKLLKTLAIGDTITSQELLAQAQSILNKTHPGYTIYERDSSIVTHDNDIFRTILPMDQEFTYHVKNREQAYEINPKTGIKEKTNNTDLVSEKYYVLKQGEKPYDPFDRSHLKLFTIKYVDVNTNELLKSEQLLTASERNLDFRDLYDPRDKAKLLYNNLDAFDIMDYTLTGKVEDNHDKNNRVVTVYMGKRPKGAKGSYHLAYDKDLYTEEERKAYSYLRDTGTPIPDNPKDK

[13] = test system: Streptococcus; assay: GAS UMAA2166 growth inhibition – luminescence, BacTiterGlo, counter-screen for streptokinase expression inhibitor project, dose response (AID 1915); type: functional, organism-based;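 further: potency for reduction of bacterial viability or growth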
[14] = target: Paired box protein Pax-8 (Homo sapiens, UniProt Q06710); assay: PAX8 transcriptional activity inhibition in RMG-I – RMG-I cells, luciferase, cherry-pick, dose response (AID 687027); type: functional, cell-based;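 further: luciferase reporter driven by Pax8 target thyroperoxidase promoter measured by SteadyGlo luminescence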
Paired box protein Pax-8, sequence (Q06710 whole entry): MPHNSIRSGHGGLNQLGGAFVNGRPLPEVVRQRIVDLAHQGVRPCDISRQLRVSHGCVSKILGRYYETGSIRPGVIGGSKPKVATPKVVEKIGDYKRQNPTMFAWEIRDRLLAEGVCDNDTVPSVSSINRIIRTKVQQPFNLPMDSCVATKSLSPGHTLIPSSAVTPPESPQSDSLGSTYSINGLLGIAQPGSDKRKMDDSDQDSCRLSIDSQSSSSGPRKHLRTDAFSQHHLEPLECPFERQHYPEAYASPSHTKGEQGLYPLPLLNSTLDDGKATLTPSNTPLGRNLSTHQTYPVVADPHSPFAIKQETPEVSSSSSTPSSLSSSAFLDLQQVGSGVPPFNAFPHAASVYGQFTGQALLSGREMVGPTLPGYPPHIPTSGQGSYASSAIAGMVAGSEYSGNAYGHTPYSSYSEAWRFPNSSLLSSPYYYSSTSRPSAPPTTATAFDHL

[15] = NIH-3T3 fibroblast cytotoxicity, dose response, cytotoxicity control, cell-based, fluorescence, Alamar Blue, secondary assay (AID 2327); type: functional;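 further: NIH-3T3 mouse fibroblasts cultured with fluconazole at 8 µg/mL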
[16] = fluconazole-exposed Candida albicans growth modulators – fluorescence, retest, confirmation (AID 2467); type: functional, cell-based
[17] = Trypanosoma cruzi growth suppression in host cells – NIH3T3 host cells, beta-gal luminescence, confirmation (AID 2044); type: functional, cell-based;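 further: intracellular parasites grown in NIH/3T3 mouse fibroblasts as host cells; luminescent beta-galactosidase reporter signal from transgenic T. cruzi replicating inside host cells; inhibitors lower the luminescence signal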
[18] = NIH3T3 cell viability loss – ATP luminescence, mouse fibroblasts, counter-screen, dose response (AID 2010); type: functional, cell-based;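 further: cells exposed to compound for about 90 hours before reading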

FAD-linked sulfhydryl oxidase ALR, sequence (P55789 whole entry): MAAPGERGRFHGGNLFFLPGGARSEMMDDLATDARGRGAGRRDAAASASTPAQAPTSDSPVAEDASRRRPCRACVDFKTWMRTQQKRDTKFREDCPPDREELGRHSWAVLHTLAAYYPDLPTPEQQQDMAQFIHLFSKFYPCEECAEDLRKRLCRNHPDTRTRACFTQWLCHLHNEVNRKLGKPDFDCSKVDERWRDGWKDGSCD

CC(NC(=O)C(=O)N1CCCCC1)C(c1cccs1)N1CCN(c2ccccc2)CC1 (stereo not drawn)
AC50 [1]: 1.16 µM (active)

CCN(CC)c1ccc(NC(=O)CSc2nc3nc(C)cc(C)c3c(=O)[nH]2)cc1
IC50 [2]: 10.2 µM (active)

Clc1cccc(CSc2ccc(-c3ccco3)nn2)c1
CC50 [3]: > 50 µM (active) | IC50 [4]: 99.9 µM (inactive)

O=C(CC1C(=O)NCCN1Cc1ccc(F)cc1)NCCN1CCCc2ccccc21 (stereo not drawn)
AC50 [1]: 3.16 µM (active)

c1cnc2c(OCc3nc4ccccc4[nH]3)cccc2c1
EC50 [5]: 0.396 µM (active) | EC50 [6]: 7.06 µM (active) | EC50 [7]: 5.66 µM (active) | IC50 [8]: 7.55 µM (not active)

COc1ccc(Cl)cc1NC(=O)CSc1ncnc2c1oc1ccccc12
EC50 [9]: 4.25 µM (active) | EC50 [10]: 6.22 µM (active)

CNC(=O)COC(=O)CNC(=O)c1cc(Cl)cc([N+](=O)[O-])c1
IC50 [8]: > 50 µM (not active)

Cc1ccc(C(=O)N(Cc2ccccc2)C(C)(C)C)cc1C
IC50 [8]: 16.6 µM (not active)

Cc1cccc(Nc2ncccc2C(=O)NCc2cccs2)c1C
IC50 [8]: 14.4 µM (not active)

O=C(N/N=C/c1c[nH]c2ccccc12)c1[nH]c2ccc(Br)cc2c1-c1ccccc1
EC50 [11]: 1.29 µM (active) | EC50 [12]: > 150 µM (not active) | EC50 [9]: 0.412 µM (active) | EC50 [10]: 0.378 µM (active) | EC50 [13]: 2.22 µM (active) | AC50 [14]: 3.5 µM (active)

CCCCCCCCC(=O)NNC(=O)c1c(O)c2ccccc2n(CC)c1=O
EC50 [15]: > 150 µM (inactive) | EC50 [16]: 2.96 µM (active)

O=C(C1CCC(=O)N(C2CC2)C1)N1CCN(c2ccc(Cl)cc2)CC1 (stereo not drawn)
AC50 [1]: 15.8 µM (active)

CN(C)c1ccc(/C=C/c2cc[n+](C)cc2)cc1
EC50 [17]: 0.723 µM (active) | EC50 [18]: > 60 µM (not active) | AC50 [1]: 0.416 µM (active)

CCN(CC)C(=O)/C(=C/c1ccc2c(c1)OCO2)NC(=O)c1ccc(Br)cc1
EC50 [15]: > 150 µM (inactive) | EC50 [16]: 3.58 µM (active)

CCc1cc2c(=O)n(Cc3ccccc3)c(SC3CCOC3=O)nc2s1 (stereo not drawn)
IC50 [8]: 12.6 µM (not active)

O=C(COC(=O)CCNS(=O)(=O)c1ccccc1)Nc1ccc(OC(F)F)cc1
IC50 [4]: > 100 µM (inactive)

CCOC(=O)c1c(NC(=O)C2CCCN(S(=O)(=O)c3ccccc3)C2)sc2c1CCCC2 (stereo not drawn)
EC50 [9]: 50.9 µM (active) | EC50 [10]: 73.3 µM (active)

CCCCN(CC)CCCN=C(S)Nc1ccc2nc3n(c(=O)c2c1)CCCCC3
EC50 [17]: 1.29 µM (active) | IC50 [8]: < 0.4 µM (not active) | EC50 [18]: > 60 µM (not active)

CCOc1ccc(-c2nnc(-c3ccccc3)o2)cc1
IC50 [4]: > 100 µM (inactive)

Fc1ccc(CSc2ncnc3ccccc23)cc1
IC50 [4]: 31.8 µM (active)

CCOc1ccccc1NC(=O)Cn1c(=O)oc2cc(Cl)ccc21
IC50 [4]: > 100 µM (inactive)
